# Laboratory results: patent US7247756B2, “1,4-disubstituted benzenes as insecticides” (Bayer CropScience AG, priority 2000, dated 2007)
# Several values for one entry are separate records, joined by “and”; a condition that tells them apart may be missing. Equal entries are not always repeated.
# Test system: tobacco budworm (Heliothis virescens [Fabricius])
# Experiment: surface-treated diet test against tobacco budworm
# Type: in vivo
# Settings: second instar larvae, five-day exposure
# Method: Candidate insecticides are evaluated for activity against the tobacco budworm (Heliothis virescens [Fabricius]) in a surface-treated diet test.
# In this test one mL of molten (65–70° C.) wheat germ-based artificial diet is pipetted into each well of a four by six (24 well) multi-well plate (ID#430345-15.5 mm dia.×17.6 mm deep; Corning Costar Corp., One Alewife Center, Cambridge, Mass. 02140). The diet is allowed to cool to ambient temperature before treatment with candidate insecticide.
# For a determination of insecticidal activity, solutions of the candidate insecticides are prepared for testing using a Packard 204DT Multiprobe® Robotic System (Packard Instrument Company, 800 Research Parkway, Meriden, Conn. 06450), in which the robot first dilutes a standard 50 millimolar DMSO solution of candidate insecticide with a 1:1 water/acetone solution (V/V) in a ratio of 1:7 stock solution to water/acetone. The robot subsequently pipettes 40 microliters of the so-prepared solution onto the surface of the diet in each of three wells in the 24 multi-well plate. The process is repeated with solutions of seven other candidate insecticides. Once treated, the contents of the multi-well plate are allowed to dry, leaving 0.25 millimoles of candidate insecticide on the surface of the diet, or a concentration of 0.25 millimolar. Appropriate untreated controls containing only DMSO on the diet surface are also included in this test.
# For evaluations of the insecticidal activity of a candidate insecticide at varying rates of application, the test is established as described above using sub-multiples of the standard 50 millimolar DMSO solution of candidate insecticide. For example, the standard 50 millimolar solution is diluted by the robot with DMSO to give 5, 0.5, 0.05, 0.005, 0.0005 millimolar, or more dilute solutions of the candidate insecticide. In these evaluations there are six replicates of each rate of application placed on the surface of the diet in the 24 multi-well plate, for a total of four rates of application of candidate insecticide in each plate.
# In each well of the test plate is placed one second instar tobacco budworm larvea, each weighing approximately five milligrams. After the larvae are placed in each well, the plate is sealed with clear polyfilm adhesive tape. The tape over each well is perforated to ensure an adequate air supply. The plates are then held in a growth chamber at 25° C. and 60% relative humidity for five days (light 14 hours/day).
# After the five-day exposure period insecticidal activity for each rate of application of candidate insecticide is assessed as percent inhibition of insect weight relative to the weight of insects from untreated controls, and percent mortality when compared to the total number of insects infested.
# [1] = rate of application 4.6 (negative log of the molar concentration of test compound in the diet)
# [2] = rate of application 5.6 (negative log of the molar concentration of test compound in the diet)
# [3] = rate of application 6.6 (negative log of the molar concentration of test compound in the diet)
# [4] = rate of application 3.6 (negative log of the molar concentration of test compound in the diet)
Compound,Percent Growth Inhibition [2],Percent Growth Inhibition [3],also measured
"CCN(CC)CCOc1ccc(COCc2ccc(Cl)c3ccccc23)cc1 [Compound 8, (2-(4-(((4-chloronaphthyl)methoxy)methyl)phenoxy)ethyl)diethylamine]",,,Percent Growth Inhibition [1]: 11%
"CCN(CC)CCOc1ccc(CNc2ccc(Cl)c3ccccc23)cc1 [Compound 84, (2-(4-(((4-chloronaphthyl)amino)methyl)phenoxy)ethyl)diethylamine]",11%,,
"CC1CCCC(C)N1CCOc1ccc(COc2ccc(Cl)c3ccccc23)cc1 (stereo not drawn) [Compound 106, 1-(2-(2,6-dimethylpiperidyl)ethoxy)-4-((4-chloronaphthyloxy)methyl)benzene]",,35%,
"CCN(CC)CCOc1ccc(COc2ccc(Cl)c3cc(Cl)ccc23)cc1 [Compound 216, (2-(4-((4,6-dichloronaphthyloxy)methyl)phenoxy)ethyl)diethylamine]",,1%,
"CCN(CC)CCOc1ccc(COc2cccc3c(Cl)c(Cl)ccc23)cc1 [Compound 223, (2-(4-((5,6-dichloronaphthyloxy)methyl)phenoxy)ethyl)diethylamine]",,63%,
"CCN(CC)CCOc1ccc(CNc2ccc(Cl)c3ccccc23)cc1OC [Compound 263, (2-(4-(((4-chloronaphthyl)amino)methyl)-2-methoxyphenoxy)ethyl)diethylamine]",26%,,
"CCN(CC)CCOc1ccc(COc2ccc(Cl)c(Cl)c2Cl)cc1 [Compound 308, diethyl(2-(4-((2,3,4-trichlorophenoxy)methyl)phenoxy)ethyl)amine]",18%,,
"CCN1CCN(c2ccc(COc3cccc4c(Cl)c(Cl)ccc34)cc2)CC1 [Compound 355, 1,2-dichloro-5-{[4-(4-ethylpiperazinyl)phenyl]methoxy}naphthalene]",96%,−2%,Percent Growth Inhibition [4]: 100%; Percent Mortality [4]: 100%; Percent Growth Inhibition [1]: 100%; Percent Mortality [1]: 100%; Percent Mortality [2]: 17%
"amino(2-(4-((5,6-dichloronaphthyloxy)methyl)phenoxy)ethyl)diethyl-1-one [Compound 183]",,28% and 18%,
